Measurements taken from US20230027066A1 (Urovant Sciences GmbH, priority 2019, published 2023).

Tests used:
men and women with OAB = assay: Phase 2b study of vibegron in OAB, Part 1, efficacy at Week 8 (voiding diary); assay type: in vivo, human; details: tolterodine ER 4 mg
Description: Part 2 was designed to continue to assess the safety and efficacy of concomitant dosing. […] Subjects in both Part 1 and Part 2 had the option of enrolling in a 1-year extension. Participants were required to keep a voiding diary, recording the occurrence of each strong urge, total incontinence, and urge incontinence episode. Efficacy data for Part 1 and Part 2 are summarized herein.
The total number of urgency incontinence episodes must have exceeded the total number of stress incontinence episodes for all subjects.

[1] = Phase 2b study, vital sign (HR, SBP, DBP) changes and orthostatic AEs; assay type: in vivo, human; details: tolterodine 4 mg
Description: None led to discontinuation. The overall incidence of orthostatic symptoms was low.
Small differences in the percent of subjects exceeding categorical heart rate and blood pressure thresholds for vibegron were similar to those in the tolterodine arm.

[2] = Phase 3 study (75 mg), post-void residual urine volume (PVR); assay type: in vivo, human
Description: The risk of acute urinary retention or morbidities related to an increase in Post-Void Residual (PVR) is a concern with antimuscarinic therapy that promotes smooth muscle relaxation by inhibiting acetylcholine-induced smooth muscle contraction. If, during contraction, the bladder cannot generate enough pressure to overcome the outlet resistance in the urethra, either because of poor detrusor contractility or profound obstruction (most commonly from BPH), acute urinary retention or incomplete emptying of the bladder may result.
The volume of urine that remains in the bladder after voiding (PVR) is an objective measurement that may serve as a proxy for impaired ability to void.
PVR were performed via ultrasound at the visits indicated in the Schedule of Activities.

CYP2D6 = CYP2D6 (Homo sapiens, UniProt P10635); assay: clinical; details: in vivo, 4 mg
Chain of CYP2D6 (P10635 whole entry): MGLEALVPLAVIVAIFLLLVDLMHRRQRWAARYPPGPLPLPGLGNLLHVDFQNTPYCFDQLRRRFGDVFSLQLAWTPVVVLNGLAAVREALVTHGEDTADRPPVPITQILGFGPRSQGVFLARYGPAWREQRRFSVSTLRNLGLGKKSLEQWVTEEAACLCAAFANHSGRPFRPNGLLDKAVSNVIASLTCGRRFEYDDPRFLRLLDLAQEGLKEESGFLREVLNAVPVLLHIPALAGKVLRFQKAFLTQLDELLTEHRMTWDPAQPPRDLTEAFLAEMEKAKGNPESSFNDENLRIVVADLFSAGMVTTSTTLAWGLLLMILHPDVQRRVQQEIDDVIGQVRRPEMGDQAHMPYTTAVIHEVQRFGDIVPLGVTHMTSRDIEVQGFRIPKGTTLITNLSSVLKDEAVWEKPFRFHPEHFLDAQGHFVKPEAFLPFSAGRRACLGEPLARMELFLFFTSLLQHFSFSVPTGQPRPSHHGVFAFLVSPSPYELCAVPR

[3] = Males with medical history of BPH

Cc1ccc(O)c([C@H](CCN(C(C)C)C(C)C)c2ccccc2)c1 [Tolterodine ER, tolterodine, reference compound]
Change from baseline in volume voided per micturition at Week 8, difference from placebo in LS means (men and women with OAB): 30.77 mL
Micturitions: adjusted difference from placebo at Week 8, difference in LS means (MMRM) (men and women with OAB): −0.6
Micturitions: change from baseline at Week 8, mean (men and women with OAB): −1.73
Micturitions: daily number of events, Week 8 mean (men and women with OAB): 9.24
Micturitions: difference from placebo at Week 8, difference in LS means (cLDA) (men and women with OAB): −0.54
Urgency episodes: adjusted difference from placebo at Week 8, difference in LS means (MMRM) (men and women with OAB): −1.0
Urgency episodes: change from baseline at Week 8, mean (men and women with OAB): −2.52
Urgency episodes: daily number of events, Week 8 mean (men and women with OAB): 3.91
Urgency episodes: difference from placebo at Week 8, difference in LS means (cLDA) (men and women with OAB): −0.94
Total incontinence episodes: adjusted difference from placebo at Week 8, difference in LS means (MMRM) (men and women with OAB; OAB Wet subjects): −0.3
Total incontinence episodes: change from baseline at Week 8, mean (men and women with OAB; OAB Wet subjects): −1.80
Total incontinence episodes: daily number of events, Week 8 mean (men and women with OAB; OAB Wet subjects): 1.32
Total incontinence episodes: difference from placebo at Week 8, difference in LS means (cLDA) (men and women with OAB; OAB Wet subjects): −0.34
Urgency incontinence episodes: adjusted difference from placebo at Week 8, difference in LS means (MMRM) (men and women with OAB; OAB Wet subjects): −0.4
Urgency incontinence episodes: change from baseline at Week 8, mean (men and women with OAB; OAB Wet subjects): −1.67
Urgency incontinence episodes: daily number of events, Week 8 mean (men and women with OAB; OAB Wet subjects): 1.15
Urgency incontinence episodes: difference from placebo at Week 8, difference in LS means (cLDA) (men and women with OAB; OAB Wet subjects): −0.46
DBP change from baseline, mean (95% CI) maximum, week 1 to 8 [1]: 5.19 (4.26, 6.13) mm Hg
DBP change from baseline, mean (95% CI), week 1 [1]: −0.12 (−1.10, 0.86) mm Hg
HR change from baseline, mean (95% CI) maximum, week 1 to 8 [1]: 5.66 (4.69, 6.63) bpm
HR change from baseline, mean (95% CI), week 1 [1]: 0.68 (−0.31, 1.67) bpm
SBP change from baseline, mean (95% CI) maximum, week 1 to 8 [1]: 7.29 (6.01, 8.57) mm Hg
SBP change from baseline, mean (95% CI), week 1 [1]: 0.04 (−1.36, 1.43) mm Hg
PVR category at Week 12 <100 mL, patients ([2]; Females): 94.4%
PVR category at Week 12 ≥100 mL to <200 mL, patients ([2]; Females): 5.3%
PVR category at Week 12 ≥200 mL to <350 mL, patients ([2]; Females): 0.3%
PVR category at Week 12 ≥350 mL, patients ([2]; Females): 0
PVR, Mean Change from Baseline at Week 12 (SD) ([2]; Females): 1.9 (40.24) mL
PVR category at Week 12 <100 mL, patients ([2]; Males): 85.2%
PVR category at Week 12 ≥100 mL to <200 mL, patients ([2]; Males): 11.5%
PVR category at Week 12 ≥200 mL to <350 mL, patients ([2]; Males): 3.3%
PVR category at Week 12 ≥350 mL, patients ([2]; Males): 0
PVR, Mean Change from Baseline at Week 12 (SD) ([2]; Males): 10.2 (44.24) mL
PVR category at Week 12 <100 mL, patients [2, 3]: 71.4%
PVR category at Week 12 ≥100 mL to <200 mL, patients [2, 3]: 28.6%
PVR category at Week 12 ≥200 mL to <350 mL, patients [2, 3]: 0%
PVR category at Week 12 ≥350 mL, patients [2, 3]: 0
PVR, Mean Change from Baseline at Week 12 (SD) [2, 3]: 3.7 (50.64) mL
PVR category at Week 12 <100 mL, patients ([2]; all patients): 86.5%
PVR category at Week 12 ≥100 mL to <200 mL, patients ([2]; all patients): 5.8%
PVR category at Week 12 ≥200 mL to <350 mL, patients ([2]; all patients): 0.7%
PVR category at Week 12 ≥350 mL, patients ([2]; all patients): 0
PVR, Mean Change from Baseline at Week 12 (SD) ([2]; all patients): 3.1 (40.93) mL
AUC(0-t) (CYP2D6): 28.4 ng·h/mL
half-life (CYP2D6): 10 h
